Experiments:
[1] = target: T1, human P450 1B1 (Homo sapiens, UniProt Q16678); assay: biochemical
T1 sequence (Q16678 1-543): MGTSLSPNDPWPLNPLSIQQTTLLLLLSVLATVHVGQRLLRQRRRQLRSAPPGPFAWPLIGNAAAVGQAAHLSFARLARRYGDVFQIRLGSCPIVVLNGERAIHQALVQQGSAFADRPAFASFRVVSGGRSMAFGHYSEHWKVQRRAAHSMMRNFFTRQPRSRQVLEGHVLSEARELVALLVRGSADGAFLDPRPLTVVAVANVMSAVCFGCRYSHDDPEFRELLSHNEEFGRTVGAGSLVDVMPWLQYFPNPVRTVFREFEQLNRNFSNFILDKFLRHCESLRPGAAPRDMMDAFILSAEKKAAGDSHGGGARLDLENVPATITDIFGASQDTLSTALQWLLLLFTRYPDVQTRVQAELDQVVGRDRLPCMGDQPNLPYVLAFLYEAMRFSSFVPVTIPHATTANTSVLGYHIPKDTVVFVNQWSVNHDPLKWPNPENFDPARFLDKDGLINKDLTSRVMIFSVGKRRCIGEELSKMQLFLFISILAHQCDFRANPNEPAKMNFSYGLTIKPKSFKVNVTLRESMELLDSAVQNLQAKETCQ

[2] = target: T1, human P450 1B1; assay: Spectral binding titration; settings: for Reverse Type I spectra ΔAmax/Ks (magnitude of spectral binding) / Reverse Type I spectra ΔAmax: purified P450 1B1 1.0 μM, ND = not detected at 100 μM; for Reverse Type I spectra ΔAmax: means ± SEs

SMILES	IC50 [1] [µM]	Reverse Type I spectra ΔAmax/Ks (magnitude of spectral binding) [2]	Reverse Type I spectra ΔAmax [2]	Kd [2] [µM]	spectral interaction with P450 1B1 (in words) ([2]; up to 100 μM)	Reverse Type I spectra ΔAmax ([2]; listed as Flavone)
C#Cc1ccc2ccc3cccc4ccc1c2c34 [1EP, 1-ethynylpyrene]	0.036 ± 0.005	0.0169	0.049 ± 0.005	–	–	–
CC#Cc1ccc2ccc3cccc4ccc1c2c34 [1PP, 1-(1-propynyl)pyrene]	0.045 ± 0.005	0.0156	0.042 ± 0.002	–	–	–
C=Cc1ccc2ccc3cccc4ccc1c2c34 [1VP, 1-vinylpyrene]	0.15 ± 0.02	0.0209	0.092 ± 0.003	4.4 ± 0.3	–	–
C#CCOCc1ccccc1-c1ccccc1 [2BMPE, 2-biphenyl methyl propargyl ether]	–	0.0009	0.130 ± 0.009	–	–	–
C#CCOc1ccccc1-c1ccccc1 [2BPE, 2-biphenyl propargyl ether]	–	0.0010	0.110 ± 0.009	–	–	–
C#Cc1ccc2ccccc2c1 [2EN, 2-ethynylnaphthalene]	1.2 ± 0.2	0.0033	0.049 ± 0.002	–	–	–
C#Cc1cc2ccc3cccc4ccc(c1)c2c34 [2EP, 2-ethynylpyrene]	0.038 ± 0.004	0.0209	0.071 ± 0.001	–	–	–
C#Cc1ccc2c(ccc3ccccc32)c1 [2EPh, 2-ethynylphenanthrene]	0.21 ± 0.03	0.0190	0.080 ± 0.004	–	–	–
COc1ccccc1-c1cc(=O)c2c(O)cc(O)cc2o1 [2M57DHF, 2′-methoxy-5,7-dihydroxyflavone]	0.24 ± 0.02	0.0016	0.100 ± 0.011	64 ± 10	–	–
COc1ccccc1-c1cc(=O)c2ccc(O)c(O)c2o1 [2M78DHF, 2′-methoxy-7,8-dihydroxyflavone]	> 100	–	–	–	did not show any detectable spectral interaction	–
COc1ccccc1-c1cc(=O)c2ccccc2o1 [2MF, 2′-methoxyflavone]	0.32 ± 0.06	0.0013	0.070 ± 0.005	56 ± 8	–	–
CC#Cc1ccc2c(ccc3ccccc32)c1 [2PPh, 2-(1-propynyl)phenanthrene]	0.15 ± 0.02	0.0305	0.067 ± 0.005	–	–	–
C#Cc1ccc2ccc3ccccc3c2c1 [3EPh, 3-ethynylphenanthrene]	0.16 ± 0.02	0.0237	0.071 ± 0.001	–	–	–
COc1cccc(-c2cc(=O)c3c(O)cc(O)cc3o2)c1 [3M57DHF, 3′-methoxy-5,7-dihydroxyflavone]	0.11 ± 0.02	0.0037	0.075 ± 0.008	20 ± 3	–	–
COc1cccc(-c2cc(=O)c3ccc(O)c(O)c3o2)c1 [3M78DHF, 3′-methoxy-7,8-dihydroxyflavone]	3.7 ± 0.5	0.0003	0.044 ± 0.005	140 ± 15	–	–
COc1cccc(-c2cc(=O)c3ccccc3o2)c1 [3MF, 3′-methoxyflavone]	0.15 ± 0.02	0.0006	0.029 ± 0.001	51 ± 4.1	–	–
CC#Cc1ccc2ccc3ccccc3c2c1 [3PPh, 3-(1-propynyl)phenanthrene]	0.067 ± 0.008	0.0194	0.060 ± 0.006	–	–	–
C#CCOCc1ccc(-c2ccccc2)cc1 [4BMPE, 4-biphenyl methyl propargyl ether]	–	0.0055	0.071 ± 0.002	–	–	–

SMILES	IC50 [1] [µM]	Reverse Type I spectra ΔAmax/Ks (magnitude of spectral binding) [2]	Reverse Type I spectra ΔAmax [2]	Kd [2] [µM]	spectral interaction with P450 1B1 (in words) ([2]; up to 100 μM)	Reverse Type I spectra ΔAmax ([2]; listed as Flavone)
C#CCOc1ccc(-c2ccccc2)cc1 [4BPE, 4-biphenyl propargyl ether]	–	0.0007	0.056 ± 0.010	–	–	–
C#Cc1ccc(-c2ccccc2)cc1 [4EB, 4-ethynylbiphenyl]	2.2 ± 0.3	0.0030	0.023 ± 0.001	–	–	–
C#Cc1cc2cccc3ccc4cccc1c4c32 [4EP, 4-ethynylpyrene]	0.17 ± 0.03	0.0130	0.052 ± 0.004	–	–	–
COc1ccc(-c2cc(=O)c3ccc(O)c(O)c3o2)cc1 [4M78DHF]	1.1 ± 0.2	0.0013	0.073 ± 0.009	56 ± 15	–	–
COc1ccc(-c2cc(=O)c3ccccc3o2)cc1 [4MF, 4′-methoxyflavone]	0.23 ± 0.03	–	–	66 ± 11	–	–
C#Cc1cc2ccccc2c2ccccc12 [9EPh, 9-ethynylphenanthrene]	0.12 ± 0.01	0.0197	0.071 ± 0.004	–	–	–
CC#Cc1cc2ccccc2c2ccccc12 [9PPh, 9-(1-propynyl)phenanthrene]	0.16 ± 0.03	0.0153	0.049 ± 0.002	–	–	–
C#CCOc1ccccc1-c1ccccc1OCC#C [22BDPE, 2,2-biphenyl dipropagyl ether]	–	0.0006	0.018 ± 0.001	–	–	–
COc1ccc(-c2cc(=O)c3c(O)cc(O)cc3o2)cc1OC [34DM57DHF, 3′,4′-dimethoxy-5,7-dihydroxyflavone]	–	0.0180	0.037 ± 0.002	2 ± 0.3	–	–
COc1ccc(-c2cc(=O)c3ccc(O)c(O)c3o2)cc1OC [34DM78DHF, 3′,4′-dimethoxy-7,8-dihydroxyflavone]	19 ± 2.3	0.0003	0.053 ± 0.003	190 ± 17	–	–
COc1ccc(-c2cc(=O)c3ccccc3o2)cc1OC [34DMF, 3′,4′-dimethoxyflavone]	0.26 ± 0.03	0.0021	0.051 ± 0.003	24 ± 3.2	–	–
C#CCOc1ccc(-c2ccc(OCC#C)cc2)cc1 [44BDPE, 4,4-biphenyl dipropargyl ether]	–	0.0013	0.031 ± 0.002	–	–	–
O=c1cc(-c2ccccc2)oc2c1ccc1ccccc12 [ANF, α-naphthoflavone, reference compound]	–	0.0061	0.073 ± 0.007	–	–	–
O=c1cc(-c2ccccc2)oc2ccc3ccccc3c12 [BNF, β–naphthoflavone, reference compound]	0.0041 ± 0.0004	0.0061	0.079 ± 0.009	13 ± 1.2	–	–
C[C@]12CC[C@@H]3c4ccc(O)cc4CC[C@H]3[C@@H]1CC[C@@H]2O [E2, 17β-estradiol, reference compound]	–	0.0005	0.039 ± 0.007	–	–	–
COc1cc(C=Cc2ccc(OC)cc2OC)cc(OC)c1 [TMS, 2,4,3′,5′-tetramethoxystilbene, reference compound]	–	0.0110	–	–	–	–
O=c1cc(-c2ccccc2)oc2ccccc12 [flavone, reference compound]	–	0.0006	0.026 ± 0.002	–	–	0.026
